Data: paper PMC6797481, “Identification of an allosteric binding site on the human glycine transporter, GlyT2, for bioactive lipid analgesics” (eLife, 2019)

Tests used:
GlyT2 Q473A mutant = GlyT2 Q473A mutant (Homo sapiens, UniProt Q9Y345, Q473A); details: read-out: Glycine EC50; glycine transport, GlyT2 Q473A (vestibule allosteric site)
Procedure: (§1) Human GlyT1b or GlyT2a (herein referred to as GlyT1 and GlyT2) cDNA were sub-cloned into the plasmid oocyte transcription vector (pOTV). Site-directed mutagenesis was performed using traditional PCR techniques, and sequences confirmed by the Australian Genome Research Facility (Sydney, Australia). WT and mutant plasmid DNA were linearised with SpeI (New England Biolabs (Genesearch) Arundel, Australia) and RNA transcribed by T7 RNA polymerase using the mMessagemMachine kit (Ambion, TX, USA).
(§2) Oocytes were extracted from female Xenopus laevis frogs and detached from follicle cell containing lobes by digestion with 2 mg/mL collagenase A (Boehringer, Mannheim, Germany). Defoliculated stage V-VI oocytes were injected with 4.6 ng of cRNA encoding WT or mutant transporter (Drummond Nanoinject, Drummond Scientific Co., Broomall, PA, USA). Surgical proceedures have been approved by the University of Sydney Animal Ethics Committee (protocol 2016/970). The oocytes were stored at 16–18°C for 2–5 days in ND96 solution (96 mM NaCl, 2 mM KCL, 1 mM MgCl2, 1.8 mM CaCl2, 5 mM HEPES, pH 7.55), supplemented with 2.5 mM sodium pyruvate, 0.5 mM theophylline, 50 µg/mL gentamicin and 100 µM/mL tetracycline.
(§3) 2–5 days following injection, glycine transport currents were measured at −60 mV using Geneclamp 500 amplifier (Axon Instruments, Foster City, CA, USA) with a Powerlab 2/20 chart recorder (ADInstruments, Sydney, Australia) and chart software (ADInstruments). All data were subsequently analysed using GraphPad Prism 7.02 (GraphPad Software, San Diego, CA).
(§4) The function of each mutant transporter was tested by measuring glycine concentration dependent transport currents in ND96 (96 mM Na^+) to drive transport. EC50 values were determined using the modified Michaelis-Menten equation:(1) I=([GIy].Imax)/EC50+[GIy] where I is current (nA), [Gly] is the concentration of glycine, Imax is the current generated by a maximal concentration of glycine (300 µM) and EC50 is the concentration of glycine that generates a half maximal current. Values are presented as mean ± SEM obtained fromn ≥3 cells from at least two batches of oocytes. To determine if mutations affected glycine transport, one way ANOVA tests were employed, with a Dunnett’s post-hoc test used for comparison with WT GlyT2. For L425I comparison with WT GlyT1 a two-tailed t-test was used. Statistical significance were represented as p<0.05 *, p<0.01 **, p<0.001 *** etc. in the following figures.
(§5) Glycine concentration response curves were performed on WT and mutant transporters to generate EC50 values. Transport currents were measured in the presence of increasing concentrations of glycine (1 – 300 μM).

GlyT2 E701A mutant = GlyT2 E701A mutant (Homo sapiens, UniProt Q9Y345, E701A); details: read-out: Glycine EC50; glycine transport, GlyT2 E701A (vestibule allosteric site)
GlyT2 E701A mutant, sequence (Q9Y345 whole entry E701A): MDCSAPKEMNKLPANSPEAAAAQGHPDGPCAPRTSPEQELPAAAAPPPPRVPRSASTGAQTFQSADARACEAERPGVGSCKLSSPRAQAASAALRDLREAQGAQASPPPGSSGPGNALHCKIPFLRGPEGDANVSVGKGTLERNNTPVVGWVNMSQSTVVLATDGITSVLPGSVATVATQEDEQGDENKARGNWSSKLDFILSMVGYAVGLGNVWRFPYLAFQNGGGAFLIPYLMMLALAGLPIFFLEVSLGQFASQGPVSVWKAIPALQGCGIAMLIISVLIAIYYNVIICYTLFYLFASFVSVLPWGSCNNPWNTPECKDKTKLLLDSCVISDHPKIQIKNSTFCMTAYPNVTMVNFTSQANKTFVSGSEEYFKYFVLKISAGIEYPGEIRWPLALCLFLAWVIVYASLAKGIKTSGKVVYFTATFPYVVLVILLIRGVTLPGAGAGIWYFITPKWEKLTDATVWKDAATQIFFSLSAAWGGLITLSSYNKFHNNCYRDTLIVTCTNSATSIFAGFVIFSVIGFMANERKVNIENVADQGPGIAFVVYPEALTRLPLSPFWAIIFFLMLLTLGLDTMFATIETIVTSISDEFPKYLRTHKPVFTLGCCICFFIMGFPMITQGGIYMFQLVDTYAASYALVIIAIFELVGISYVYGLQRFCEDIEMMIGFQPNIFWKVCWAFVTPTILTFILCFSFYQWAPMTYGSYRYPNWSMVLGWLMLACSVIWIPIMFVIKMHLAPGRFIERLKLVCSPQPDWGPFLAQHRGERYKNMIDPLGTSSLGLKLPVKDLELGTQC
Procedure: as §1, §2, §3, §4, §5

GlyT2 T472A mutant = GlyT2 T472A mutant (Homo sapiens, UniProt Q9Y345, T472A); details: glycine transport, GlyT2 T472A (vestibule allosteric site)
GlyT2 T472A mutant, sequence (Q9Y345 whole entry T472A): as the sequence (Q9Y345 whole entry E701A) above, with T472A, A701E counted along it
Procedure: as §1, §2, §3, §4, §5

GlyT2 D469A mutant = GlyT2 D469A mutant (Homo sapiens, UniProt Q9Y345, D469A); details: read-out: Glycine EC50; glycine transport, GlyT2 D469A (vestibule allosteric site)
GlyT2 D469A mutant, sequence (Q9Y345 whole entry D469A): as the sequence (Q9Y345 whole entry E701A) above, with D469A, A701E counted along it
Procedure: as §1, §2, §3, §4, §5

GlyT2 P429A mutant = GlyT2 P429A mutant (Homo sapiens, UniProt Q9Y345, P429A); details: glycine transport, GlyT2 P429A (TM5)
GlyT2 P429A mutant, sequence (Q9Y345 whole entry P429A): as the sequence (Q9Y345 whole entry E701A) above, with P429A, A701E counted along it
Procedure: as §1, §2, §3, §4, §5

GlyT2 T634A mutant = GlyT2 T634A mutant (Homo sapiens, UniProt Q9Y345, T634A); details: read-out: Glycine EC50; glycine transport, GlyT2 T634A (vestibule allosteric site)
GlyT2 T634A mutant, sequence (Q9Y345 whole entry T634A): as the sequence (Q9Y345 whole entry E701A) above, with T634A, A701E counted along it
Procedure: as §1, §2, §3, §4, §5

GlyT2 S696A mutant = GlyT2 S696A mutant (Homo sapiens, UniProt Q9Y345, S696A); details: read-out: Glycine EC50; glycine transport, GlyT2 S696A (vestibule allosteric site)
GlyT2 S696A mutant, sequence (Q9Y345 whole entry S696A): as the sequence (Q9Y345 whole entry E701A) above, with S696A, A701E counted along it
Procedure: as §1, §2, §3, §4, §5

GlyT2 F569A/V/L mutants = details: glycine transport, GlyT2 F569A/V/L (TM8)
Procedure: as §1, §2, §3, §4, §5

GlyT1 WT = details: read-out: Glycine EC50, glycine transport
Procedure: as §1
as §2, with “The oocytes were stored at 16–18°C for 2–5 days in ND96 solution (96 mM NaCl, 2 mM KCL, 1 mM MgCl2, 1.8 mM CaCl2, 5 mM HEPES, pH 7.55), supplemented with 2.5 mM sodium pyruvate, 0.5 mM theophylline, 50 µg/mL gentamicin and 100 µM/mL tetracycline.” left out
as §3, with “CA). […]” for “CA).”

GlyT2 WT = biological target: T1, GlyT2 WT (Homo sapiens, UniProt Q9Y345); details: read-out: Glycine EC50, glycine transport, mean ± SEM
T1 sequence (Q9Y345 1-797): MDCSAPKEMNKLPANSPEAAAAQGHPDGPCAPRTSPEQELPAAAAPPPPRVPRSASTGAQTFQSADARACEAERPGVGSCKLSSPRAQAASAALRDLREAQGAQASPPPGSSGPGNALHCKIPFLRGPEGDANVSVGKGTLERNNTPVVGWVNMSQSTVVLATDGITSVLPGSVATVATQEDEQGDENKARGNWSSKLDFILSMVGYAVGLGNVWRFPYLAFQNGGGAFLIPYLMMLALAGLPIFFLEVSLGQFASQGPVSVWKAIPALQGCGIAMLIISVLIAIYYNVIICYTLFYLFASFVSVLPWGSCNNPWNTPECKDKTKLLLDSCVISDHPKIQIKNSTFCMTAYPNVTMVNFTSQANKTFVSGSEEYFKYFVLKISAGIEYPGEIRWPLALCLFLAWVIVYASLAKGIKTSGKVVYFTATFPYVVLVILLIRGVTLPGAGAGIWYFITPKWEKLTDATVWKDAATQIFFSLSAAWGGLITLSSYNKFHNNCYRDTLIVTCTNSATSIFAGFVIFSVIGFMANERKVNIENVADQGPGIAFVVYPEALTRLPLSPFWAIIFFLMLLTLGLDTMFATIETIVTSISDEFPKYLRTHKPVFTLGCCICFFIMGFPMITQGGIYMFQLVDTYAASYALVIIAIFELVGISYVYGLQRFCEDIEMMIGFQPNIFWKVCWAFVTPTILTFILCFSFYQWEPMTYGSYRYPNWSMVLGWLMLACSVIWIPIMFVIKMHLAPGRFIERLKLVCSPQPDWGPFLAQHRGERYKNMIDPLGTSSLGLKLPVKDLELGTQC
Procedure: as §1
as §2, with “The oocytes were stored at 16–18°C for 2–5 days in ND96 solution (96 mM NaCl, 2 mM KCL, 1 mM MgCl2, 1.8 mM CaCl2, 5 mM HEPES, pH 7.55), supplemented with 2.5 mM sodium pyruvate, 0.5 mM theophylline, 50 µg/mL gentamicin and 100 µM/mL tetracycline.” left out
as §3, with “CA). […]” for “CA).”

[1] = set-up: method as in Mostyn et al., 2019; details: ref Mostyn et al., 2019; cited from earlier work
[2] = set-up: method as in Mostyn et al., 2019; details: ref Mostyn et al., 2019; cited from earlier work; remark: listed apart in the source

GlyT2 Q473A mutant, sequence (Q9Y345 whole entry Q473A): as the sequence (Q9Y345 whole entry E701A) above, with Q473A, A701E counted along it

| Compound | EC50 (GlyT2 Q473A mutant) [µM] | EC50 (GlyT2 E701A mutant) [µM] | Glycine EC50 (GlyT2 T472A mutant) | EC50 (GlyT2 D469A mutant) [µM] | Glycine EC50 (GlyT2 P429A mutant) | EC50 (GlyT2 T634A mutant) [µM] | EC50 (GlyT2 S696A mutant) [µM] | Glycine EC50 (GlyT2 F569A/V/L mutants) | EC50 (GlyT1 WT) [µM] | EC50 (GlyT2 WT) [µM] | metabolic stability [1] | blood brain barrier permeability [2] |
| --- | --- | --- | --- | --- | --- | --- | --- | --- | --- | --- | --- | --- |
| NCC(=O)O [Glycine] | 498 ± 146 | 16.5 ± 0.87 | No transport currents | 110 ± 12.8 | No transport currents | 28.6 ± 3.2 | 25.6 ± 2.7 | No transport currents | 14.4 ± 1.2 | 14.5 ± 2.6 |  |  |
| oleoyl d-Lysine |  |  |  |  |  |  |  |  |  |  | metabolically stable | blood brain barrier permeable |
